The values below come from patent publication US12503438B2, “Compounds for the treatment of kinase-dependent disorders” (Exelixis, Inc., priority 2019, dated 2025).

The structures appear in SMILES notation.

Chain of Met (P08581 974-1390): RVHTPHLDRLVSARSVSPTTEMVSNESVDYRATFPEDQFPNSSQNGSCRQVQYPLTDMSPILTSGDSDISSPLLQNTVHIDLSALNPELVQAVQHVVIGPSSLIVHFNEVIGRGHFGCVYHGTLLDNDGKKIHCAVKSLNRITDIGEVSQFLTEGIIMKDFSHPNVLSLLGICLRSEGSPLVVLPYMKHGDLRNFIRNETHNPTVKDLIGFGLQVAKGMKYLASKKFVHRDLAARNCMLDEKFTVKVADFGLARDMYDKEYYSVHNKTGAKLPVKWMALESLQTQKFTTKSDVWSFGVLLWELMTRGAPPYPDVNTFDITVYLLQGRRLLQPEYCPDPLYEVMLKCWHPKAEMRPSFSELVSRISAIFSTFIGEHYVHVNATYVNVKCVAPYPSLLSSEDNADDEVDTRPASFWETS

One assay deals with T1, Mer (Homo sapiens, UniProt Q12866).
T1 construct: host or cells: 293A cells (Thermo Fisher #R70507)
T1 sequence (Q12866 21-999): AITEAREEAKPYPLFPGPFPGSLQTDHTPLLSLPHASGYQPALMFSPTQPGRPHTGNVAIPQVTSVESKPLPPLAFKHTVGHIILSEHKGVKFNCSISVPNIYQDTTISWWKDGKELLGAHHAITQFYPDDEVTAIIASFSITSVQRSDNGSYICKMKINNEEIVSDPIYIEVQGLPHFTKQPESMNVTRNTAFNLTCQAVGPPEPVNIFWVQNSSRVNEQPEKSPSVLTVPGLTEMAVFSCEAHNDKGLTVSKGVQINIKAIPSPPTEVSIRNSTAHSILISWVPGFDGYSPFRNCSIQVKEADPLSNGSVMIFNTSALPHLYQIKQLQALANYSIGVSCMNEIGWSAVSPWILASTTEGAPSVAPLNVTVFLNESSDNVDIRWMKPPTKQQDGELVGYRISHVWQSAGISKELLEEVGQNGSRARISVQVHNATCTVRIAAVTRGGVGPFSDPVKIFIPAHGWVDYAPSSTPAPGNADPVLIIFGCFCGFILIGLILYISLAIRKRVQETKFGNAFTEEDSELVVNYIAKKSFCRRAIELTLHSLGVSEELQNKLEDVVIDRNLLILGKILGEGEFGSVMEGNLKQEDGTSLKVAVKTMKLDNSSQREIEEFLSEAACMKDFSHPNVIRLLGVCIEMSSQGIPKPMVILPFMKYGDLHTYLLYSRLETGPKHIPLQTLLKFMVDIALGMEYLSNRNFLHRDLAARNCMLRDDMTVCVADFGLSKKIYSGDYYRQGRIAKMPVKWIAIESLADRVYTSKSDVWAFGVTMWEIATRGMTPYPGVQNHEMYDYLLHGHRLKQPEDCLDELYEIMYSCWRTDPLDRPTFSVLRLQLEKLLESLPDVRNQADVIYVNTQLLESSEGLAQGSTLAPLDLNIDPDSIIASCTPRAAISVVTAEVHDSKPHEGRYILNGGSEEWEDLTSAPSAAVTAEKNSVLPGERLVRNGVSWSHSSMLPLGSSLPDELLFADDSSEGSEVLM
Nature of the assay: Mer autophosphorylation ELISA in transient transfected 293A cells. Format: cell-based. To be noted: cellular activity; MERTK-transfected 293A cells, phospho-Mer ELISA. How it is done:
293A cells (Thermo Fisher #R70507) were seeded at 1.5×10^6 cells/well onto 100 mm dish (Greiner #664169), in DMEM (Thermo Fisher #11995-040) containing 10% FBS (Thermo Fisher #26140-079), 1% MEM NEAA (Thermo Fisher #11140-050), 1% GlutaMax (Thermo Fisher #35050-061), and 1% Penicillin Streptomycin (Thermo Fisher #15140-122). 293A cells were incubated at 37° C., 5% CO2 for 24 h and then transfected with 6 μg MERTK DNA (Genecopoeia #EX-Z8208-M02) using TransIT LT1 transfection reagent (Mirus-Bio #MIR2305). After 24 h incubation, the transfected 293A cells were seeded at 1×10^5 cells/well onto 96-well plates (Corning #3904) in DMEM growth medium overnight. Test compounds were serially diluted to produce an 8-point dose curve in fresh serum-free medium to a final concentration of 0.3% DMSO (vehicle) and added to the cells and incubated for 1 h. Cells were then immediately lysed with 150 μL of cold 1× lysis buffer [20 mM Tris, 137 mM sodium chloride, 2 mM EDTA, 10% glycerol, 1% NP-40 alternative, 1 mM activated sodium orthovanadate, 1 mM PefaBloc SC (Sigma-Aldrich #11429868001), protease/phosphatase inhibitor tablet (Thermo Fisher #A32959)]. Lysates were clarified by centrifugation and 50 μL/well added into the human phospho-Mer DuoSet IC ELISA (R&D Systems #DYC2579-2). Assay was performed according to manufacturer's instructions and sample phospho-Mer concentrations were extrapolated using human phospho-Mer control (R&D Systems #841793) as a standard. Positive control wells (100% activity) contained DMSO-treated cell lysates. Negative control wells (0% activity) contained reference inhibitor-treated cell lysates. IC50 values were calculated by nonlinear regression analysis using a 4-parameter logistic curve fit in ActivityBase XE (IDBS).
`CC(C)n1cc(-c2ccc3c(Oc4ccc(NC(=O)C5(C(=O)Nc6ccc(F)cc6)CC5)cc4)ccnc3c2)cn1` [Compound 21, 1-N′-(4-Fluorophenyl)-1-N-[4-[7-(1-propan-2-ylpyrazol-4-yl)quinolin-4-yl]oxyphenyl]cyclopropane-1,1-dicarboxamide]: the half-inhibitory concentration (IC50) fell in the range of 10 to 100 nM. Compound `O=C(Nc1ccc(F)cc1)C1(C(=O)Nc2ccc(Oc3ccnc4cc(-c5cccnc5O)ccc34)cc2)CC1` [Compound 52, 1-N′-(4-Fluorophenyl)-1-N-[4-[7-(2-hydroxypyridin-3-yl)quinolin-4-yl]oxyphenyl]cyclopropane-1,1-dicarboxamide] came in with a concentration for half-maximal inhibition (IC50) of 100 to 300 nM. Consider `N#Cc1ccc(-c2ccc3c(Oc4ccc(NC(=O)C5(C(=O)Nc6ccc(F)cc6)CC5)cc4)ccnc3c2)cn1` [Compound 42, 1-N-[4-[7-(6-Cyanopyridin-3-yl)quinolin-4-yl]oxyphenyl]-1-N′-(4-fluorophenyl)cyclopropane-1,1-dicarboxamide], for which the IC50 was 10 to 100 nM. Compound `O=C(Nc1ccc(F)cc1)C1(C(=O)Nc2ccc(Oc3ccnc4cc(-c5ccc[n+]([O-])c5)ccc34)cc2)CC1` [Compound 109, 1-N′-(4-Fluorophenyl)-1-N-[4-[7-(1-oxidopyridin-1-ium-3-yl)quinolin-4-yl]oxyphenyl]cyclopropane-1,1-dicarboxamide] gave an IC50 of 10 to 100 nM. As to `N#Cc1cncc(-c2ccc3c(Oc4ccc(NC(=O)C5(C(=O)Nc6ccc(F)cc6)CC5)cc4)ccnc3c2)c1` [Compound 40, 1-N-[4-[7-(5-Cyanopyridin-3-yl)quinolin-4-yl]oxyphenyl]-1-N′-(4-fluorophenyl)cyclopropane-1,1-dicarboxamide], the IC50 lay in the range of 10 to 100 nM. The same measure, in the same setting: the same measure for `O=C(Nc1ccc(F)cc1)C1(C(=O)Nc2ccc(Oc3ccnc4cc(-c5cc6n(n5)CCC6)ccc34)cc2)CC1` [Compound 124, 1-N-[4-[7-(5,6-Dihydro-4H-pyrrolo[1,2-b]pyrazol-2-yl)quinolin-4-yl]oxyphenyl]-1-N′-(4-fluorophenyl)cyclopropane-1,1-dicarboxamide]: 10 to 100 nM; for `Cc1cncc(-c2ccc3c(Oc4ccc(NC(=O)C5(C(=O)Nc6ccc(F)cc6)CC5)cc4)ccnc3c2)c1` [Compound 46, 1-N′-(4-Fluorophenyl)-1-N-[4-[7-(5-methylpyridin-3-yl)quinolin-4-yl]oxyphenyl]cyclopropane-1,1-dicarboxamide]: 100 to 300 nM. The same measure, in the same setting: with `O=C(Nc1ccc(F)cc1)C1(C(=O)Nc2cc(F)c(Oc3ccnc4cc(-c5cccnc5)ccc34)cc2F)CC1` [Compound 115, 1-N′-[2,5-Difluoro-4-(7-pyridin-3-ylquinolin-4-yl)oxyphenyl]-1-N-(4-fluorophenyl)cyclopropane-1,1-dicarboxamide] the figure was 10 to 100 nM; with `O=C(Nc1ccc(F)cc1)C1(C(=O)Nc2cc(F)c(Oc3ccnc4cc(-c5cnn(C(F)F)c5)ccc34)cc2F)CC1` [Compound 118, 1-N′-[4-[7-[1-(Difluoromethyl)pyrazol-4-yl]quinolin-4-yl]oxy-2,5-difluorophenyl]-1-N-(4-fluorophenyl)cyclopropane-1,1-dicarboxamide], 10 to 100 nM. Turning to `O=C(Nc1ccc(F)cc1)C1(C(=O)Nc2ccc(Oc3ccnc4cc(-c5ccncn5)ccc34)cc2)CC1` [Compound 114, 1-N′-(4-Fluorophenyl)-1-N-[4-(7-pyrimidin-4-ylquinolin-4-yl)oxyphenyl]cyclopropane-1,1-dicarboxamide], the IC50 lay within 10 to 100 nM. `Cc1cc2c(Oc3c(F)cc(NC(=O)C4(C(=O)Nc5ccc(F)cc5)CC4)c(F)c3F)ccnc2cc1-c1cnn(C)c1` [Compound 110, 1-N-(4-Fluorophenyl)-1-N′-[2,3,5-trifluoro-4-[6-methyl-7-(1-methylpyrazol-4-yl)quinolin-4-yl]oxyphenyl]cyclopropane-1,1-dicarboxamide] showed an IC50 of 10 to 100 nM. `Cc1cc2c(Oc3ccc(NC(=O)C4(C(=O)Nc5ccc(F)cc5)CC4)cc3)ccnc2cc1-c1ncc[nH]1` [Compound 120, 1-N′-(4-Fluorophenyl)-1-N-[4-[7-(1H-imidazol-2-yl)-6-methylquinolin-4-yl]oxyphenyl]cyclopropane-1,1-dicarboxamide] registered a half-maximal inhibitory concentration (IC50) of 10 to 100 nM.

A further assay addresses Met (Homo sapiens, UniProt P08581). Nature of the assay: Human Met kinase assay (33P-phosphoryl transfer radiometric, KinaseProfiler). Also on record: Human Met (residues R974-S1390 with A1209G and V1290L, 3.4 nM); purchased Eurofins Pharma Discovery Services UK Limited (KinaseProfiler service). The following applies: biochemical activity; 10 μM ATP; read-out: c-Met IC50. The procedure: Kinase activity and compound inhibition were investigated using the ^33P-Phosphoryl transfer radiometric kinase assay, performed using the KinaseProfiler™ service of Eurofins Pharma Discovery Services UK Limited. Dose-response experiments were performed using nine compound concentrations in a 96-well microtiter plate. For each assay, all compounds were prepared to a 50× final assay concentration (50 μM) in 100% DMSO, then diluted in a half-log series, with the final top concentration at 1 μM. This working stock of the compound was added to the assay well as the first component in the reaction, followed by the remaining components as detailed in the following assay protocols below. The positive control wells (100% kinase activity) contain all components of the reaction including 2% DMSO (control for solvent effects), except the compound of interest. Blank wells contain all components of the reaction, with the reference inhibitor, staurosporine. This reference compound was used to abolish kinase activity and generated the 0% kinase activity base-line. IC50 values were calculated by nonlinear regression analysis using the sigmoidal dose-response (variable slope) curve fit on XLFit version 5.3 (ID Business Solutions).
Human Met (residues R974-S1390 with A1209G and V1290L, 3.4 nM) was incubated with 8 mM MOPS pH 7.0, 0.2 mM EDTA, 250 μM KKKGQEEEYVFIE, 1 mM sodium orthovanadate, 5 mM […], 10 mM magnesium acetate, and 10 μM [γ-^33P-ATP]. The reaction was initiated by the addition of the Mg/ATP mix. After incubation for 40 minutes at room temperature, the reaction was stopped by the addition of phosphoric acid to a concentration of 0.5%. A reaction aliquot of 10 μL was then spotted onto a P30 filtermat and washed four times for 4 minutes in 0.425% phosphoric acid and once in methanol prior to drying and scintillation counting. Incorporated ^33P was measured using the Wallac Microbeta scintillation counter (Perkin Elmer).
On to `C#Cc1ccc2c(Oc3ccc(NC(=O)C4(C(=O)Nc5ccc(F)cc5)CC4)cc3)ccnc2c1` [Compound 64, 1-N-[4-(7-Ethynylquinolin-4-yl)oxyphenyl]-1-N′-(4-fluorophenyl)cyclopropane-1,1-dicarboxamide], for which the concentration for half-maximal inhibition (IC50) was at most 10 nM. Same read-out and setting: with `O=C(Nc1ccc(F)cc1)C1(C(=O)Nc2ccc(Oc3ccnc4cc(-c5cnn[nH]5)ccc34)cc2)CC1` [Compound 65, 1-N′-(4-Fluorophenyl)-1-N-[4-[7-(1H-triazol-5-yl)quinolin-4-yl]oxyphenyl]cyclopropane-1,1-dicarboxamide] the figure was 100 to 1000 nM; with `CN(C(=O)C1(C(=O)Nc2ccc(Oc3ccnc4cc(-c5cnn(C)c5)ccc34)cc2)CC1)c1ccc(F)cc1` [Compound 82A, 1-N′-(4-Fluorophenyl)-1-N′-methyl-1-N-[4-[7-(1-methylpyrazol-4-yl)quinolin-4-yl]oxyphenyl]cyclopropane-1,1-dicarboxamide], 100 to 1000 nM. Consider `Cc1noc(C)c1-c1ccc2c(Oc3ccc(NC(=O)C4(C(=O)Nc5ccc(F)cc5)CC4)cc3)ccnc2c1` [Compound 53, 1-N-[4-[7-(3,5-Dimethyl-1,2-oxazol-4-yl)quinolin-4-yl]oxyphenyl]-1-N′-(4-fluorophenyl)cyclopropane-1,1-dicarboxamide], for which the IC50 lay within 10 to 100 nM. Consider `C[Si](C)(C)C#Cc1ccc2c(Oc3ccc(NC(=O)C4(C(=O)Nc5ccc(F)cc5)CC4)cc3)ccnc2c1` [Compound 63, 1-N′-(4-Fluorophenyl)-1-N-[4-[7-(2-trimethylsilylethynyl)quinolin-4-yl]oxyphenyl]cyclopropane-1,1-dicarboxamide], for which the IC50 lay within 10 to 100 nM.
